# Experimental data reported in PMC8909834, “An Orally Bioavailable and Highly Efficacious Inhibitor of CDK9/FLT3 for the Treatment of Acute Myeloid Leukemia” (Cancers, 2022).
# Assays:
# Assay in all cases: Kinase Hotspot radiolabel assay
# Type in all cases: biochemical
# Conditions in all cases: read-out: % Residual Activity
# ERN1/IRE1 = target: T1, ERN1/IRE1 (Homo sapiens, UniProt O75460)
# T1 construct: purchased Reaction Biology Corporation (Kinase HotSpot)
# Description: (§1) Kinase assay. The ADP Glo^TM kinase assay (Promega, Madison, WI, USA) was used to assess the inhibition by CDDD11-8 of CDKs 1, 2, 4, 6, 7, and 9, as well as the mutant isoforms of FLT3. The assays were performed in accord with the manufacturer’s protocol (Promega) as described previously. Briefly, serial three-fold dilutions of CDDD11-8 were prepared in 100% DMSO from a 2 mM stock solution, followed by 1:40 dilution into Milli-Q water. Subsequently, 1 µL of each sample was incubated with 4 µL of kinase mixture containing a particular CDK enzyme and its substrate, standard kinase buffer [3 mM MgCl2, 50 mM HEPES-NaOH pH 7.5, 3 mM MnCl2, 3 µM Na-orthovanadate, 1 mM dithiothreitol (DTT)], kinase dilution buffer (containing 0.25 mg/mL PEG20,000, 50 mM HEPES-NaOH pH 7.5, 1 mM DTT), and ATP at 37 °C for 30 to 40 min. The final reaction mixture contained 0.5% DMSO in all samples, and the applied kinase concentrations were 1, 1, 10, 40, 20, and 50 nM for CDK1, 2, 4, 6, 7, and 9, respectively. The reaction was stopped by adding ADP-Glo reagent and the mixture was incubated further in the dark at room temperature for 40 min. As a final step, kinase detection reagent was added to each mixture and incubated at room temperature for 30 to 60 min. Luminescence was read using an EnVision® multilabel plate reader (PerkinElmer, Beaconsfield, UK), and half-maximum inhibitory concentrations (IC50) were calculated using a non-linear regression model with a variable slope, plotting log (inhibitor concentration) vs. response using the following formula: Ar%=Bottom+Top−Bottom/1+Inhibitor Concentration/IC50^HillSlope where the relative activity Ar (%) is the signal relative to the controls, IC50 is the half maximum concentration, Hillslope is the steepness of the dose-response curve, Top and Bottom are plateaus reflecting the maximum and minimum in responses on the Y-axis (GraphPad Prism version 7, San Diego, CA, USA). Ki values were calculated from the IC50 using the Cheng−Prusoff equation [32]. Extensive specificity assessment was carried out by Reaction Biology Corporation (Malvern, PA, USA) with 369 kinases using 1 µM CDDD11-8 concentration in a Kinase Hotspot radiolabel assay (for experimental details, please see (Reaction Biology https://www.reactionbiology.com/). Subsequently, Ki values were determined for kinases with greater than 90% inhibition.
# NEK7 = target: T2, NEK7 (Homo sapiens, UniProt Q8TDX7)
# T2 construct: purchased Reaction Biology Corporation (Kinase HotSpot)
# Description: as §1
# BMPR2 = target: T3, BMPR2 (Homo sapiens, UniProt Q13873)
# T3 construct: purchased Reaction Biology Corporation (Kinase HotSpot)
# Description: as §1
# ZIPK/DAPK3 = target: T4, ZIPK/DAPK3 (Homo sapiens, UniProt O43293)
# T4 construct: purchased Reaction Biology Corporation (Kinase HotSpot)
# Description: as §1
# ALK5/TGFBR1 = target: T5, ALK5/TGFBR1 (Homo sapiens, UniProt P36897)
# T5 construct: purchased Reaction Biology Corporation (Kinase HotSpot)
# Description: as §1
# TNIK = target: T6, TNIK (Homo sapiens, UniProt Q9UKE5)
# T6 construct: purchased Reaction Biology Corporation (Kinase HotSpot)
# Description: as §1
# ITK = target: T7, ITK (Homo sapiens, UniProt Q08881)
# T7 construct: purchased Reaction Biology Corporation (Kinase HotSpot)
# Description: as §1
# MLK4 = target: T8, MLK4 (Homo sapiens, UniProt Q5TCX8)
# T8 construct: purchased Reaction Biology Corporation (Kinase HotSpot)
# Description: as §1
# BRSK2 = target: T9, BRSK2 (Homo sapiens, UniProt Q8IWQ3)
# T9 construct: purchased Reaction Biology Corporation (Kinase HotSpot)
# Description: as §1
# TIE2/TEK = target: T10, TIE2/TEK (Homo sapiens, UniProt Q02763)
# T10 construct: purchased Reaction Biology Corporation (Kinase HotSpot)
# Description: as §1
# IKKe/IKBKE = target: T11, IKKe/IKBKE (Homo sapiens, UniProt Q14164)
# T11 construct: purchased Reaction Biology Corporation (Kinase HotSpot)
# Description: as §1
# BRSK1 = target: T12, BRSK1 (Homo sapiens, UniProt Q8TDC3)
# T12 construct: purchased Reaction Biology Corporation (Kinase HotSpot)
# Description: as §1
# MYLK3 = target: T13, MYLK3 (Homo sapiens, UniProt Q32MK0)
# T13 construct: purchased Reaction Biology Corporation (Kinase HotSpot)
# Description: as §1
# CDK18/cyclin Y (PCTK3) = target: T14, CDK18/cyclin Y (PCTK3) (Homo sapiens, UniProt Q07002)
# T14 construct: purchased Reaction Biology Corporation (Kinase HotSpot)
# Description: as §1
# TRKC = target: T15, TRKC (Homo sapiens, UniProt Q16288)
# T15 construct: purchased Reaction Biology Corporation (contract assay)
# Description: as §1
# CAMK2a = target: T16, CAMK2a (Homo sapiens, UniProt Q9UQM7)
# T16 construct: purchased Reaction Biology Corporation (Kinase HotSpot)
# Description: as §1
# NEK6 = target: T17, NEK6 (Homo sapiens, UniProt Q9HC98)
# T17 construct: purchased Reaction Biology Corporation (Kinase HotSpot)
# Description: as §1
# CDK7/cyclin H = target: T18, CDK7/cyclin H (Homo sapiens, UniProt P50613)
# T18 construct: purchased Reaction Biology Corporation (Kinase HotSpot)
# Description: as §1
# ALK2/ACVR1 = target: T19, ALK2/ACVR1 (Homo sapiens, UniProt Q04771)
# T19 construct: purchased Reaction Biology Corporation (Kinase HotSpot)
# Description: as §1
# SYK = target: T20, SYK (Homo sapiens, UniProt P43405)
# T20 construct: purchased Reaction Biology Corporation (Kinase HotSpot)
# Description: as §1
# NEK5 = target: T21, NEK5 (Homo sapiens, UniProt Q6P3R8)
# T21 construct: purchased Reaction Biology Corporation (Kinase HotSpot)
# Description: as §1
# SGK3/SGKL = target: T22, SGK3/SGKL (Homo sapiens, UniProt Q96BR1)
# T22 construct: purchased Reaction Biology Corporation (Kinase HotSpot)
# Description: as §1
# CHK1 = target: T23, CHK1 (Homo sapiens, UniProt O14757)
# T23 construct: purchased Reaction Biology Corporation (Kinase HotSpot)
# Description: as §1
# MEK3 = target: T24, MEK3 (Homo sapiens, UniProt P46734)
# T24 construct: purchased Reaction Biology Corporation (Kinase HotSpot)
# Description: as §1
# PLK4/SAK = target: T25, PLK4/SAK (Homo sapiens, UniProt O00444)
# T25 construct: purchased Reaction Biology Corporation (Kinase HotSpot)
# Description: as §1
# TSSK3/STK22C = target: T26, TSSK3/STK22C (Homo sapiens, UniProt Q96PN8)
# T26 construct: purchased Reaction Biology Corporation (Kinase HotSpot)
# Description: as §1
# CLK1 = target: T27, CLK1 (Homo sapiens, UniProt P49759)
# T27 construct: purchased Reaction Biology Corporation (Kinase HotSpot)
# Description: as §1
# EPHA5 = target: T28, EPHA5 (Homo sapiens, UniProt P54756)
# T28 construct: purchased Reaction Biology Corporation (Kinase HotSpot)
# Description: as §1
# CDK4/cyclin D3 = target: T29, CDK4/cyclin D3 (Homo sapiens, UniProt P11802)
# T29 construct: purchased Reaction Biology Corporation (Kinase HotSpot)
# Description: as §1
# ZAP70 = target: T30, ZAP70 (Homo sapiens, UniProt P43403)
# T30 construct: purchased Reaction Biology Corporation (Kinase HotSpot)
# Description: as §1
# T12 sequence (Q8TDC3 whole entry): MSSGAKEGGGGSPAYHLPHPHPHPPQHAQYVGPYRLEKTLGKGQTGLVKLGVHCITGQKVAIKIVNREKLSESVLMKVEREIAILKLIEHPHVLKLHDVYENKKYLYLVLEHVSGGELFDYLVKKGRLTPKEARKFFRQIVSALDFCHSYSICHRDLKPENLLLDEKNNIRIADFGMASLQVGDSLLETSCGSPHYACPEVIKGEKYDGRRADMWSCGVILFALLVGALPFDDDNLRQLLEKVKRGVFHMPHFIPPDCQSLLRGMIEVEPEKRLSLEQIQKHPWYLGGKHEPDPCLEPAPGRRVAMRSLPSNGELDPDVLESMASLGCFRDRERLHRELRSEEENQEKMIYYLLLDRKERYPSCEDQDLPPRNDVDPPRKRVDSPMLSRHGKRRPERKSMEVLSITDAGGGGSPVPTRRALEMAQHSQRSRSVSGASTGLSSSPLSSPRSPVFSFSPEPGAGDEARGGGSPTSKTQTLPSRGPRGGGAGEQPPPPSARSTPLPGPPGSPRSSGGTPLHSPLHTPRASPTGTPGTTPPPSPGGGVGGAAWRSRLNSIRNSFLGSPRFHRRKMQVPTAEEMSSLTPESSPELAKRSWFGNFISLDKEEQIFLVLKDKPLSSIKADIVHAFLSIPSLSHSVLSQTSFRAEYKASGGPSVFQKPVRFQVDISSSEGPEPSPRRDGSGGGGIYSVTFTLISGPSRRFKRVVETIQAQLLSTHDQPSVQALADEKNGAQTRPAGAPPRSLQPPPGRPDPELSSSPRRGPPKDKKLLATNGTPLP
# T24 sequence (P46734 whole entry): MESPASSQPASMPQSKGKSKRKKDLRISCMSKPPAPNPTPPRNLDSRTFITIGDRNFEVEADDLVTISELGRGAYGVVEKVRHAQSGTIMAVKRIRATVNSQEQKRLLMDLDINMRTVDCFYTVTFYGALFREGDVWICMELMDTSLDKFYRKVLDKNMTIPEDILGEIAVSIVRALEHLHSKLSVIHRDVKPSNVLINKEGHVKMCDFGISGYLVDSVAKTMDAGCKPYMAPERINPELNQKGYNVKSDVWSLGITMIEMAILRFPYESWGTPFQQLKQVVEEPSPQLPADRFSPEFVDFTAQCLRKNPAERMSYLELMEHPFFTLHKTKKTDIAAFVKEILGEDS
# T1 sequence (O75460 19-977): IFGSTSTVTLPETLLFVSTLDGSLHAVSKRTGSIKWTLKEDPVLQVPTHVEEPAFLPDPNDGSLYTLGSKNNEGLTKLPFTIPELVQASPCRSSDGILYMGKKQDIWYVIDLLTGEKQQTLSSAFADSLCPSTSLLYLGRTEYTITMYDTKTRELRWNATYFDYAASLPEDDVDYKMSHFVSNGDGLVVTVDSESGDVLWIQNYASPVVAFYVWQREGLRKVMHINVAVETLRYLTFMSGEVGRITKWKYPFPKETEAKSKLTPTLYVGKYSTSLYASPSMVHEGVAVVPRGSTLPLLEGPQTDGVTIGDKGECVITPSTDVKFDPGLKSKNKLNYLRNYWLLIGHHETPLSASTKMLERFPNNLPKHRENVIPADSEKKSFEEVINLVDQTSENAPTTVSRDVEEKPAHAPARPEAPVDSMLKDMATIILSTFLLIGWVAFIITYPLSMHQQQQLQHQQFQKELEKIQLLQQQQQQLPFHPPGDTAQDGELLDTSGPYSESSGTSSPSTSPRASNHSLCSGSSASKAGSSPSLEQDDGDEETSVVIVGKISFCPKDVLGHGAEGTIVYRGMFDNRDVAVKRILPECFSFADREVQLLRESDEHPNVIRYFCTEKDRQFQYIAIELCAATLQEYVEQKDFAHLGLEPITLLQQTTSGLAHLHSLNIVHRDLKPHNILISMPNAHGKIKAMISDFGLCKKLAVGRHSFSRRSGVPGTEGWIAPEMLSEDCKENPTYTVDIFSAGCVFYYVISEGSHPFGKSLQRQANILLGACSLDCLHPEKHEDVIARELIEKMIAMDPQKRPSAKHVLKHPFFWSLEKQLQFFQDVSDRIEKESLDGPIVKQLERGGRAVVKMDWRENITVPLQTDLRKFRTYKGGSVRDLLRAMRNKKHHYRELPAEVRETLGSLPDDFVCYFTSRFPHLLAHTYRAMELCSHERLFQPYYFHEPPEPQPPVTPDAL
# T5 sequence (P36897 34-503): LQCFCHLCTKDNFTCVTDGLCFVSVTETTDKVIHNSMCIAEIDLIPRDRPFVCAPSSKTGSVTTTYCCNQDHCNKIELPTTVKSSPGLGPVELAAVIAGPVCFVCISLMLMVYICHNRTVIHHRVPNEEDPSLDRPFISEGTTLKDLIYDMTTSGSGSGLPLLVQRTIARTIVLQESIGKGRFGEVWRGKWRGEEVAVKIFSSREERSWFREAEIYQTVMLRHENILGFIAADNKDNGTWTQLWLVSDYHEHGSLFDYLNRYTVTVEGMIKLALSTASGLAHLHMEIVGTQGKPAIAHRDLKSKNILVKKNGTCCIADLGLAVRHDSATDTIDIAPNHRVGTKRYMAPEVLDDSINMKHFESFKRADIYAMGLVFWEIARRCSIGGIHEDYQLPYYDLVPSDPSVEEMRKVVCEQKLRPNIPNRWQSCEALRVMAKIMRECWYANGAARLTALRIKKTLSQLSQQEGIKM
# T7 sequence (Q08881 whole entry): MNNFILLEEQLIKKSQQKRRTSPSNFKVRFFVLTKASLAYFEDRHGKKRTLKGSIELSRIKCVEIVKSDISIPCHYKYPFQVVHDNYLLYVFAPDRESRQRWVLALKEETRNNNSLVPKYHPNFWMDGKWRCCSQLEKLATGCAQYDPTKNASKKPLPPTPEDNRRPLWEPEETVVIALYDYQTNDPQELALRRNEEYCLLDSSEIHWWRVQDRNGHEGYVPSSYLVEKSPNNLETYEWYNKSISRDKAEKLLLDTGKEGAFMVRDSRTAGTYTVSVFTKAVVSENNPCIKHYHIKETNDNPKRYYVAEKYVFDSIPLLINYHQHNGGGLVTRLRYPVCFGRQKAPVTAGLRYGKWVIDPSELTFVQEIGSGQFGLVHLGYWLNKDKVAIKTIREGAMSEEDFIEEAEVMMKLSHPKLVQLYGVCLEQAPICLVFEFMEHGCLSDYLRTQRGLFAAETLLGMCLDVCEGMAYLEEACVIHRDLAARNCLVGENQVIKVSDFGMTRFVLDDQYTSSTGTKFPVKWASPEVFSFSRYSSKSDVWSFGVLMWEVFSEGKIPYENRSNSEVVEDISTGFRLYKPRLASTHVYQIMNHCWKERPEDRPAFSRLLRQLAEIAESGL
# T10 sequence (Q02763 23-1124): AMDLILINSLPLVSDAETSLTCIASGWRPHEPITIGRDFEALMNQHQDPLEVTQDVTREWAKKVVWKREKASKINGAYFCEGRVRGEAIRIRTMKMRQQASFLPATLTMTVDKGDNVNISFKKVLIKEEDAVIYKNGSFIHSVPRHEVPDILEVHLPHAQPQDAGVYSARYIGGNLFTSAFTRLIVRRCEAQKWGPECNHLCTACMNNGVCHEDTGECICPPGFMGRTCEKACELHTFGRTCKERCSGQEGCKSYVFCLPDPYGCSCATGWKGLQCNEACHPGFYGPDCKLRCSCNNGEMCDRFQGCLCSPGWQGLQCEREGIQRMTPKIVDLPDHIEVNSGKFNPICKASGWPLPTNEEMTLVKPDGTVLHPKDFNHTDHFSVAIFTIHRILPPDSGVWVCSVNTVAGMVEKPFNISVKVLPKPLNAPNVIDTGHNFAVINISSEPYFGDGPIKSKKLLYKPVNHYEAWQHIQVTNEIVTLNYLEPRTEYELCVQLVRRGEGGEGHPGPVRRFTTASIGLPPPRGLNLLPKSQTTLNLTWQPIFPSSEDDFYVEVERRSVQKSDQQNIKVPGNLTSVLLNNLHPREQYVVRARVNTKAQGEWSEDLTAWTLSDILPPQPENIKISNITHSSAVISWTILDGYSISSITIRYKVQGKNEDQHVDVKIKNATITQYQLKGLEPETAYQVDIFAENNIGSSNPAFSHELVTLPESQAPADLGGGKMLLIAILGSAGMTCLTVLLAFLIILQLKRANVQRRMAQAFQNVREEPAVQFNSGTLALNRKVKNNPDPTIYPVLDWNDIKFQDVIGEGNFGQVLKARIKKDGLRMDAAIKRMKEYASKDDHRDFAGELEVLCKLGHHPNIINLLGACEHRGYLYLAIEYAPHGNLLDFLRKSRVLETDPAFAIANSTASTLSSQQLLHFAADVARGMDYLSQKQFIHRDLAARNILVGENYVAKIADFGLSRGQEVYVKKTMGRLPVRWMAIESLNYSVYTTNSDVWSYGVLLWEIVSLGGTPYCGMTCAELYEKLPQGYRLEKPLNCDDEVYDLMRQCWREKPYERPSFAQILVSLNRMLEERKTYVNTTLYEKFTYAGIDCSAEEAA
# T9 sequence (Q8IWQ3 whole entry): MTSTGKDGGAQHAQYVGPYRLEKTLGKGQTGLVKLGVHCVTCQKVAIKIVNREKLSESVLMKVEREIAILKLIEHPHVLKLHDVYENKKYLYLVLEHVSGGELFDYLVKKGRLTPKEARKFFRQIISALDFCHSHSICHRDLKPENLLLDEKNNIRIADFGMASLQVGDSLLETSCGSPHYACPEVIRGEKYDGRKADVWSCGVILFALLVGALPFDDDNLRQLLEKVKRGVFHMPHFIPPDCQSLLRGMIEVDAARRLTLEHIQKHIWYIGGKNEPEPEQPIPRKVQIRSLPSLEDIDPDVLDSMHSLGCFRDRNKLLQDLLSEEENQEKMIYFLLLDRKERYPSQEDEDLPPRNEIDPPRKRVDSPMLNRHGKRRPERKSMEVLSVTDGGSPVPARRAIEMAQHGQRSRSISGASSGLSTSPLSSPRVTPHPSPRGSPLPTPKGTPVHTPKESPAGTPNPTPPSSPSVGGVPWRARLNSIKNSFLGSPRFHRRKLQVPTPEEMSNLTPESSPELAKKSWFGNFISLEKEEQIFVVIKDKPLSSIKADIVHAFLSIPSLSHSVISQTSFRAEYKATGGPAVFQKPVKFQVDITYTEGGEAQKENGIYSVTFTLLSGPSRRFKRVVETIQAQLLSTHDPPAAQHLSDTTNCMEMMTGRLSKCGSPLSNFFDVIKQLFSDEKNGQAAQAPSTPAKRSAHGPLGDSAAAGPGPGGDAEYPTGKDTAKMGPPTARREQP
smiles,measurement,setting,value
Cc1cnc(N[C@H]2CC[C@H](N)CC2)nc1-c1cnc2ccc(-c3ccccc3)cn12 [CDDD11-8],remaining activity at 1 µM,ERN1/IRE1,41.8%
same,remaining activity at 1 µM,NEK7,102%
same,remaining activity at 1 µM,BMPR2,90.2%
same,remaining activity at 1 µM,ZIPK/DAPK3,102%
same,remaining activity at 1 µM,ALK5/TGFBR1,93.9%
same,remaining activity at 1 µM,TNIK,4.38%
same,remaining activity at 1 µM,ITK,87.5%
same,remaining activity at 1 µM,MLK4,112%
same,remaining activity at 1 µM,BRSK2,96.5%
same,remaining activity at 1 µM,TIE2/TEK,61.2%
same,remaining activity at 1 µM,IKKe/IKBKE,91.7%
same,remaining activity at 1 µM,BRSK1,97.4%
same,remaining activity at 1 µM,MYLK3,99.7%
same,remaining activity at 1 µM,CDK18/cyclin Y (PCTK3),100%
same,remaining activity at 1 µM,TRKC,1.95%
same,remaining activity at 1 µM,CAMK2a,20.3%
same,remaining activity at 1 µM,NEK6,96.2%
same,remaining activity at 1 µM,CDK7/cyclin H,63.7%
same,remaining activity at 1 µM,ALK2/ACVR1,121%
same,remaining activity at 1 µM,SYK,13.4%
same,remaining activity at 1 µM,NEK5,28.7%
same,remaining activity at 1 µM,SGK3/SGKL,115%
same,remaining activity at 1 µM,CHK1,95.2%
same,remaining activity at 1 µM,MEK3,71.5%
same,remaining activity at 1 µM,PLK4/SAK,89.3%
same,remaining activity at 1 µM,TSSK3/STK22C,98.3%
same,remaining activity at 1 µM,CLK1,28.9%
same,remaining activity at 1 µM,EPHA5,83.8%
same,remaining activity at 1 µM,CDK4/cyclin D3,79.7%
same,remaining activity at 1 µM,ZAP70,101%
